Assays:
[1] = target: T1, WNK3 (Homo sapiens, UniProt Q9BYP7); experiment: Millipore kinase panel; assay type: biochemical; details: read-out: % Control
T1 construct: purchased Millipore KinaseProfiler (kinases); Cerep (receptors and ion channels)

[2] = target: T2, D2S (h) (Homo sapiens, UniProt P14416); experiment: CEREP binding panel; details: antagonist radioligand, read-out: % Inhibition of Control Specific Binding
T2 construct: purchased Millipore KinaseProfiler (kinases); Cerep (receptors and ion channels)

[3] = target: T3, CK1GAMMA1 (Homo sapiens, UniProt Q9HCP0); experiment: Millipore kinase panel; assay type: biochemical; details: read-out: % Control
T3 construct: purchased Millipore KinaseProfiler (kinases); Cerep (receptors and ion channels)

[4] = target: T4, MEK1 (Homo sapiens, UniProt Q02750); experiment: Millipore kinase panel; assay type: biochemical; details: read-out: % Control
T4 construct: purchased Millipore KinaseProfiler (kinases); Cerep (receptors and ion channels)

[5] = target: T5, TRKA (Homo sapiens, UniProt P04629); experiment: Millipore kinase panel; assay type: biochemical; details: read-out: % Control
T5 construct: purchased Millipore KinaseProfiler (kinases); Cerep (receptors and ion channels)
T5 sequence (P04629 33-796): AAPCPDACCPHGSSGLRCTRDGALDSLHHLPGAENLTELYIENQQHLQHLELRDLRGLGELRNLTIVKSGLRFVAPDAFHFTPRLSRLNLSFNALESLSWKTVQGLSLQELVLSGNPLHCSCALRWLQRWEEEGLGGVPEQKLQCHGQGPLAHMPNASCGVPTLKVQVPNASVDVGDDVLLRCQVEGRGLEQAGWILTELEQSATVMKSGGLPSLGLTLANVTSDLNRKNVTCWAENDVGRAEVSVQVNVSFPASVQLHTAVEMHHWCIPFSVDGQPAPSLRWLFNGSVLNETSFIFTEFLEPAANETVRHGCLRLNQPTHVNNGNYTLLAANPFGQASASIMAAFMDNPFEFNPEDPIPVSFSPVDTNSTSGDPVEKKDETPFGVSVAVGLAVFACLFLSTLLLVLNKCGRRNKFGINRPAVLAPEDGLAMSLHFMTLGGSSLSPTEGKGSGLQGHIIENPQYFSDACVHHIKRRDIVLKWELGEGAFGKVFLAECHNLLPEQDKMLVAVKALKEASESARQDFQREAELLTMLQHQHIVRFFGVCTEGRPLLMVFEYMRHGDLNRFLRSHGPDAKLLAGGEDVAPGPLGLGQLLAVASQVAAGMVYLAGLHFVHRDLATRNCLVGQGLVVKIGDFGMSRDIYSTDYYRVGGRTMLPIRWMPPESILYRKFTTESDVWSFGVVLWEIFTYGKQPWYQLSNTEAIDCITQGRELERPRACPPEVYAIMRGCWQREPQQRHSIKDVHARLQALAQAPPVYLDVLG

[6] = target: T6, CXCR2 (IL-8B) (h) (Homo sapiens, UniProt P25025); experiment: CEREP binding panel; details: agonist radioligand, read-out: % Inhibition of Control Specific Binding
T6 construct: purchased Millipore KinaseProfiler (kinases); Cerep (receptors and ion channels)

[7] = target: T7, HASPIN (Homo sapiens, UniProt Q8TF76); experiment: Millipore kinase panel; assay type: biochemical; details: read-out: % Control
T7 construct: purchased Millipore KinaseProfiler (kinases); Cerep (receptors and ion channels)

[8] = target: T8, M1 (h) (Homo sapiens, UniProt P11229); experiment: CEREP binding panel; details: antagonist radioligand, read-out: % Inhibition of Control Specific Binding
T8 construct: purchased Millipore KinaseProfiler (kinases); Cerep (receptors and ion channels)

[9] = target: T9, JNK2ALPHA2 (Homo sapiens, UniProt P45984); experiment: Millipore kinase panel; assay type: biochemical; details: read-out: % Control
T9 construct: purchased Millipore KinaseProfiler (kinases); Cerep (receptors and ion channels)

[10] = target: T10, EPHA5 (Homo sapiens, UniProt P54756); experiment: Millipore kinase panel; assay type: biochemical; details: read-out: % Control
T10 construct: purchased Millipore KinaseProfiler (kinases); Cerep (receptors and ion channels)

[11] = target: T11, δ2 (DOP) (h) (Homo sapiens, UniProt P41143); experiment: CEREP binding panel; details: agonist radioligand
T11 construct: purchased Millipore KinaseProfiler (kinases); Cerep (receptors and ion channels)
T11 sequence (P41143 whole entry): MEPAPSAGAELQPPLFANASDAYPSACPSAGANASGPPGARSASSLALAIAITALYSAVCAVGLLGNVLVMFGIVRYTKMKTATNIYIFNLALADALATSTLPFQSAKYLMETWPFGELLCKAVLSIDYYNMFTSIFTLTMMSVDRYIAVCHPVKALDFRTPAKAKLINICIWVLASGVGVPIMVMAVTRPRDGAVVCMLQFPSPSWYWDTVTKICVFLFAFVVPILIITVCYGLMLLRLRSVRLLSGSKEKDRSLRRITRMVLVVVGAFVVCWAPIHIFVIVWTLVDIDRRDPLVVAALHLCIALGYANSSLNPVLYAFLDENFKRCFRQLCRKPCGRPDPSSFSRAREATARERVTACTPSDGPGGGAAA

[12] = target: T12, CKIT (Homo sapiens, UniProt P10721); experiment: Millipore kinase panel; assay type: biochemical; details: read-out: % Control
T12 construct: purchased Millipore KinaseProfiler (kinases); Cerep (receptors and ion channels)

[13] = target: T13, IGF-1R, ACTIVATED (Homo sapiens, UniProt P08069); experiment: Millipore kinase panel; assay type: biochemical; details: read-out: % Control
T13 construct: purchased Millipore KinaseProfiler (kinases); Cerep (receptors and ion channels)

[14] = target: T14, ULK2 (Homo sapiens, UniProt Q8IYT8); experiment: Millipore kinase panel; assay type: biochemical; details: read-out: % Control
T14 construct: purchased Millipore KinaseProfiler (kinases); Cerep (receptors and ion channels)
T14 sequence (Q8IYT8 whole entry): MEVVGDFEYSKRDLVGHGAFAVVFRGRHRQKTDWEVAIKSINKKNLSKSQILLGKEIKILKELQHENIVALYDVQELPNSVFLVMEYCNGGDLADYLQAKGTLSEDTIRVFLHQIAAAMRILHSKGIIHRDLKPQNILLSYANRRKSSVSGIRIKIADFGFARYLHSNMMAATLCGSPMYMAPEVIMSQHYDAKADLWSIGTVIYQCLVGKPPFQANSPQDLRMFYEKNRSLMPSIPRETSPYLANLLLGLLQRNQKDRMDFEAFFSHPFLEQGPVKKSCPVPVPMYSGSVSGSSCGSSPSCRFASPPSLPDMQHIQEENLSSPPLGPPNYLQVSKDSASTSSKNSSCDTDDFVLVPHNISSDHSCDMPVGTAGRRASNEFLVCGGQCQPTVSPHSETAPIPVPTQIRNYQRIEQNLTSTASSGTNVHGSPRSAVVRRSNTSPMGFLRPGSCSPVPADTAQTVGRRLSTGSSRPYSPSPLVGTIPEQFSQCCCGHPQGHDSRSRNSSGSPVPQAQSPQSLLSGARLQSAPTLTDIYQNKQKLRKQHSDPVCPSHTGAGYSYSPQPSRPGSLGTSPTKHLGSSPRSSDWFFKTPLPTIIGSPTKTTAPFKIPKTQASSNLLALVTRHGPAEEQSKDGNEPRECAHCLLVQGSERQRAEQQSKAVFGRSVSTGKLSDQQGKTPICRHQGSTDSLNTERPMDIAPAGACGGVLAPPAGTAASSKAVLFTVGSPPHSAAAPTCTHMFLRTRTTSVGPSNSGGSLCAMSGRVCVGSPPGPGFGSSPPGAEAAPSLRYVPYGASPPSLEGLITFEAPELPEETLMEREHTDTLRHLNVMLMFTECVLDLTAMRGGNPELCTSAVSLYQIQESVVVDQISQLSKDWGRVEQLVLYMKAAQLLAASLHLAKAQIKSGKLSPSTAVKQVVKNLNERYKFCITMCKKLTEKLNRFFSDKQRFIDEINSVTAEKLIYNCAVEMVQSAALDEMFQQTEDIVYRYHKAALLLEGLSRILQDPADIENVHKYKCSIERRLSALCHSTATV

[15] = target: T15, TBK1 (Homo sapiens, UniProt Q9UHD2); experiment: Millipore kinase panel; assay type: biochemical; details: read-out: % Control
T15 construct: purchased Millipore KinaseProfiler (kinases); Cerep (receptors and ion channels)

[16] = target: T16, A3 (h) (Homo sapiens, UniProt P0DMS8); experiment: CEREP binding panel; details: agonist radioligand, read-out: % Inhibition of Control Specific Binding
T16 construct: purchased Millipore KinaseProfiler (kinases); Cerep (receptors and ion channels)
T16 sequence (P0DMS8 whole entry): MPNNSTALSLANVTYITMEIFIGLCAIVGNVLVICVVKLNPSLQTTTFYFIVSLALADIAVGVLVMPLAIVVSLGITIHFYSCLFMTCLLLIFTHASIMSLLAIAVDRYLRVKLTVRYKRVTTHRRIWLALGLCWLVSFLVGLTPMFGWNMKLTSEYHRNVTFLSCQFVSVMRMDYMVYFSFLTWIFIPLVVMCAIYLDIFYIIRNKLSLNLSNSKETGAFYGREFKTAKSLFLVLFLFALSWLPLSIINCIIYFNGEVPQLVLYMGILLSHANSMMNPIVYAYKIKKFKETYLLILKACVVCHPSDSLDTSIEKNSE

[17] = tested on: α2 (non-selective); experiment: CEREP binding panel; details: 10 μM, antagonist radioligand
[18] = target: T17, FYN (Homo sapiens, UniProt P06241); experiment: Millipore kinase panel; assay type: biochemical; details: read-out: % Control
T17 construct: purchased Millipore KinaseProfiler (kinases); Cerep (receptors and ion channels)

[19] = target: T18, MST2 (Homo sapiens, UniProt Q13188); experiment: Millipore kinase panel; assay type: biochemical; details: read-out: % Control
T18 construct: purchased Millipore KinaseProfiler (kinases); Cerep (receptors and ion channels)

[20] = target: T19, PKCZETA (Homo sapiens, UniProt Q05513); experiment: Millipore kinase panel; assay type: biochemical; details: read-out: % Control
T19 construct: purchased Millipore KinaseProfiler (kinases); Cerep (receptors and ion channels)

[21] = target: T20, EGFR (Homo sapiens, UniProt P00533); experiment: Millipore kinase panel; assay type: biochemical; details: read-out: % Control
T20 construct: purchased Millipore KinaseProfiler (kinases); Cerep (receptors and ion channels)

[22] = target: T21, EPHA3 (Homo sapiens, UniProt P29320); experiment: Millipore kinase panel; assay type: biochemical; details: read-out: % Control
T21 construct: purchased Millipore KinaseProfiler (kinases); Cerep (receptors and ion channels)

[23] = target: T22, SGK3 (Homo sapiens, UniProt Q96BR1); experiment: Millipore kinase panel; assay type: biochemical; details: read-out: % Control
T22 construct: purchased Millipore KinaseProfiler (kinases); Cerep (receptors and ion channels)

[24] = target: T23, MSK1 (Homo sapiens, UniProt O75582); experiment: Millipore kinase panel; assay type: biochemical; details: read-out: % Control
T23 construct: purchased Millipore KinaseProfiler (kinases); Cerep (receptors and ion channels)

[25] = target: T24, ZAP-70 (Homo sapiens, UniProt P43403); experiment: Millipore kinase panel; assay type: biochemical; details: read-out: % Control
T24 construct: purchased Millipore KinaseProfiler (kinases); Cerep (receptors and ion channels)

[26] = target: T25, NLK (Homo sapiens, UniProt Q9UBE8); experiment: Millipore kinase panel; assay type: biochemical; details: read-out: % Control
T25 construct: purchased Millipore KinaseProfiler (kinases); Cerep (receptors and ion channels)

[27] = target: T26, PAK6 (Homo sapiens, UniProt Q9NQU5); experiment: Millipore kinase panel; assay type: biochemical; details: read-out: % Control
T26 construct: purchased Millipore KinaseProfiler (kinases); Cerep (receptors and ion channels)

[28] = target: T27, ASK1 (Homo sapiens, UniProt Q99683); experiment: Millipore kinase panel; assay type: biochemical; details: read-out: % Control
T27 construct: purchased Millipore KinaseProfiler (kinases); Cerep (receptors and ion channels)

[29] = target: T28, FGFR2 (Homo sapiens, UniProt P21802); experiment: Millipore kinase panel; assay type: biochemical; details: read-out: % Control
T28 construct: purchased Millipore KinaseProfiler (kinases); Cerep (receptors and ion channels)

[30] = target: T29, NK2 (h) (Homo sapiens, UniProt P21452); experiment: CEREP binding panel; details: agonist radioligand, read-out: % Inhibition of Control Specific Binding
T29 construct: purchased Millipore KinaseProfiler (kinases); Cerep (receptors and ion channels)
T29 sequence (P21452 whole entry): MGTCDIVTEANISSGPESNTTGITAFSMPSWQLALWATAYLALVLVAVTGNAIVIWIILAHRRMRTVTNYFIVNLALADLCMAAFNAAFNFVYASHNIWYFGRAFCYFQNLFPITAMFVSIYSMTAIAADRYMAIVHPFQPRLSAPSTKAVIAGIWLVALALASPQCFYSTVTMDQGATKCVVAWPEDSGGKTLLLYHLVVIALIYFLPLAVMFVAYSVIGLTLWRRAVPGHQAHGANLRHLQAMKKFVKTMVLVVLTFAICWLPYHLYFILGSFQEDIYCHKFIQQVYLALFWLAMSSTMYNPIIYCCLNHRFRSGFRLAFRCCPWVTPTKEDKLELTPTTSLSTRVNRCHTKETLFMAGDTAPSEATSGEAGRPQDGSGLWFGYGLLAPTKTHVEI

[31] = target: T30, CDK5/P25 (Homo sapiens, UniProt Q00535); experiment: Millipore kinase panel; assay type: biochemical; details: read-out: % Control
T30 construct: purchased Millipore KinaseProfiler (kinases); Cerep (receptors and ion channels)

[32] = target: T31, MUSK (Homo sapiens, UniProt O15146); experiment: Millipore kinase panel; assay type: biochemical; details: read-out: % Control
T31 construct: purchased Millipore KinaseProfiler (kinases); Cerep (receptors and ion channels)
T31 sequence (O15146 24-869): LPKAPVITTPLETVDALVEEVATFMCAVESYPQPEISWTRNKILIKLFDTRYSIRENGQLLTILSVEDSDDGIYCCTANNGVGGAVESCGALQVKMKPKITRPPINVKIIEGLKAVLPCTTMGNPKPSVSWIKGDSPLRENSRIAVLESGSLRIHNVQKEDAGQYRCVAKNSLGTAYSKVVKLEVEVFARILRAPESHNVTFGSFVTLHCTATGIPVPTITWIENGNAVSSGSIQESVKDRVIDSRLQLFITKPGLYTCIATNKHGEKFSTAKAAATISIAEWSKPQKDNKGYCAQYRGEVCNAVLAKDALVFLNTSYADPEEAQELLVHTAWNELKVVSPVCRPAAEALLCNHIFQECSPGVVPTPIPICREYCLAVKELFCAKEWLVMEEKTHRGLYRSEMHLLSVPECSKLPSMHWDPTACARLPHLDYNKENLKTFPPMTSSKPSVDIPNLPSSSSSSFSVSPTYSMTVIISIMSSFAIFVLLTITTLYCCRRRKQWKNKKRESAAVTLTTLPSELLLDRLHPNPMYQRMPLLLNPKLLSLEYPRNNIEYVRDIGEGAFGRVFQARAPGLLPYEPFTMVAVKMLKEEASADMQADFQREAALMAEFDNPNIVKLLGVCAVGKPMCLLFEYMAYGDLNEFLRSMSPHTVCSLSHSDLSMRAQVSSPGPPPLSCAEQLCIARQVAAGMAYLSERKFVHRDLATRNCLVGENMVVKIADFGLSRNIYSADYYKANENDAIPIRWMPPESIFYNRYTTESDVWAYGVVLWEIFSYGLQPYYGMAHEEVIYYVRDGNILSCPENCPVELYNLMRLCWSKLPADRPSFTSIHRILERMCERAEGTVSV

[33] = target: T32, NEK3 (Homo sapiens, UniProt P51956); experiment: Millipore kinase panel; assay type: biochemical; details: read-out: % Control
T32 construct: purchased Millipore KinaseProfiler (kinases); Cerep (receptors and ion channels)
T32 sequence (P51956 whole entry): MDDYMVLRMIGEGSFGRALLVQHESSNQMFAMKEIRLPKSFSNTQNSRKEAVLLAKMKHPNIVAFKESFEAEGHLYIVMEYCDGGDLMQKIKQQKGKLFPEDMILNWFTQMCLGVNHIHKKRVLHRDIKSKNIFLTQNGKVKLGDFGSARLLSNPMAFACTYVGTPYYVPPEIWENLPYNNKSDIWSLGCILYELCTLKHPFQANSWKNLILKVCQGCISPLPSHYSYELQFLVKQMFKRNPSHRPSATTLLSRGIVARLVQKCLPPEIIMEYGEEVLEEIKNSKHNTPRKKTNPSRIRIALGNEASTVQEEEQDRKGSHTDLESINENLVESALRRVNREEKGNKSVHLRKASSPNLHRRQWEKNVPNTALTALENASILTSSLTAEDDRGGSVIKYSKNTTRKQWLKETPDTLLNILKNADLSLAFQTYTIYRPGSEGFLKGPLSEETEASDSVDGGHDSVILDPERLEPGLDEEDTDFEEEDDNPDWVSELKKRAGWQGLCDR

[34] = target: T33, ULK3 (Homo sapiens, UniProt Q6PHR2); experiment: Millipore kinase panel; assay type: biochemical; details: read-out: % Control
T33 construct: purchased Millipore KinaseProfiler (kinases); Cerep (receptors and ion channels)

[35] = target: T34, RSK2 (Homo sapiens, UniProt P51812); experiment: Millipore kinase panel; assay type: biochemical; details: read-out: % Control
T34 construct: purchased Millipore KinaseProfiler (kinases); Cerep (receptors and ion channels)
T34 sequence (P51812 whole entry): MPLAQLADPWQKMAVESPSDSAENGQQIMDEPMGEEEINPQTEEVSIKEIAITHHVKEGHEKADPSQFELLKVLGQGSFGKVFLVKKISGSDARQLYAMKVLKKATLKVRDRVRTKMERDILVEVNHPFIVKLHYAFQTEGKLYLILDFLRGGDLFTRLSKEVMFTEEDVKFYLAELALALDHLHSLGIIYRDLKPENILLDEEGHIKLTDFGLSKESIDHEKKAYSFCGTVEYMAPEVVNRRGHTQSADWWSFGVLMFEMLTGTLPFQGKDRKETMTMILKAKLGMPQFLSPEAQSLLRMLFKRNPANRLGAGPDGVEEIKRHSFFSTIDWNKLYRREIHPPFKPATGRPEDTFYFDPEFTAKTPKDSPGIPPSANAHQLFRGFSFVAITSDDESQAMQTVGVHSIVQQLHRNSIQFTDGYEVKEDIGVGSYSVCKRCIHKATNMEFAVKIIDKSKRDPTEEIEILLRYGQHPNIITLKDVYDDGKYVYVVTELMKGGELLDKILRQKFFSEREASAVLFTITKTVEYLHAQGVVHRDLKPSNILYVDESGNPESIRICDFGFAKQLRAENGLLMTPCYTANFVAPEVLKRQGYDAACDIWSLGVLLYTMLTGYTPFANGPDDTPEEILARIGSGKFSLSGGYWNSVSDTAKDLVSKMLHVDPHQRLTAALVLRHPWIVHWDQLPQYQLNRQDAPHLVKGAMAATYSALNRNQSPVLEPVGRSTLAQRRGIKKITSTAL

[36] = target: T35, PKG1BETA (Homo sapiens, UniProt Q13976); experiment: Millipore kinase panel; assay type: biochemical
T35 construct: purchased Millipore

[37] = target: T36, MLK1 (Homo sapiens, UniProt P80192); experiment: Millipore kinase panel; assay type: biochemical; details: read-out: % Control
T36 construct: purchased Millipore KinaseProfiler (kinases); Cerep (receptors and ion channels)

[38] = target: T37, Y2 (h) (Homo sapiens, UniProt P49146); experiment: CEREP binding panel; details: agonist radioligand, read-out: % Inhibition of Control Specific Binding
T37 construct: purchased Millipore KinaseProfiler (kinases); Cerep (receptors and ion channels)

[39] = target: T38, MT1 (ML1A) (h) (Homo sapiens, UniProt P48039); experiment: CEREP binding panel; details: agonist radioligand, read-out: % Inhibition of Control Specific Binding
T38 construct: purchased Millipore KinaseProfiler (kinases); Cerep (receptors and ion channels)

[40] = target: T39, A1 (h) (Homo sapiens, UniProt P30542); experiment: CEREP binding panel; details: antagonist radioligand, read-out: % Inhibition of Control Specific Binding
T39 construct: purchased Millipore KinaseProfiler (kinases); Cerep (receptors and ion channels)

[41] = target: T40, κ (KOP) (Rattus norvegicus, UniProt P34975); experiment: CEREP binding panel; details: agonist radioligand
T40 construct: purchased Millipore KinaseProfiler (kinases); Cerep (receptors and ion channels)

[42] = target: T41, norepinephrine transporter (h) (Homo sapiens, UniProt P23975); experiment: CEREP binding panel; details: antagonist radioligand, read-out: % Inhibition of Control Specific Binding
T41 construct: purchased Millipore KinaseProfiler (kinases); Cerep (receptors and ion channels)

[43] = target: T42, MTOR (Homo sapiens, UniProt P42345); experiment: Millipore kinase panel; assay type: biochemical; details: read-out: % Control
T42 construct: purchased Millipore KinaseProfiler (kinases); Cerep (receptors and ion channels)

[44] = target: T43, BTK (Homo sapiens, UniProt Q06187); experiment: Millipore kinase panel; assay type: biochemical; details: read-out: % Control
T43 construct: purchased Millipore KinaseProfiler (kinases); Cerep (receptors and ion channels)

[45] = read-out: % Inhibition of Control Specific Binding

O=C1NCCC12CCN(c1c(Cl)cncc1-c1ccc(N3CCOCC3)cc1)CC2 [Compound 44, 8-(3-Chloro-5-(4-morpholin-4-ylphenyl)pyridin-4-yl)-2,8-diazaspiro[4.5]decan-1-one]
remaining activity at 1 µM [1]: 0%
inhibition at 10 µM [2]: 9%
remaining activity at 1 µM [3]: 2%
remaining activity at 1 µM [4]: -3%
remaining activity at 1 µM [5]: 17%
inhibition at 10 µM [6]: -2%
remaining activity at 1 µM [7]: 21%
inhibition at 10 µM [8]: 12%
remaining activity at 1 µM [9]: 9%
remaining activity at 1 µM [10]: 11%
inhibition at 10 µM [11, 45]: 12%
remaining activity at 1 µM [12]: 12%
remaining activity at 1 µM [13]: 3%
remaining activity at 1 µM [14]: 10%
remaining activity at 1 µM [15]: 5%
inhibition at 10 µM [16]: -7%
% Inhibition of Control Specific Binding [17]: -1%
remaining activity at 1 µM [18]: 10%
remaining activity at 1 µM [19]: 1%
remaining activity at 1 µM [20]: 5%
remaining activity at 1 µM [21]: 5%
remaining activity at 1 µM [22]: 10%
remaining activity at 1 µM [23]: 5%
remaining activity at 1 µM [24]: 18%
remaining activity at 1 µM [25]: 13%
remaining activity at 1 µM [26]: 17%
remaining activity at 1 µM [27]: 13%
remaining activity at 1 µM [28]: -1%
remaining activity at 1 µM [29]: -6%
inhibition at 10 µM [30]: 11%
remaining activity at 1 µM [31]: 0%
remaining activity at 1 µM [32]: 10%
remaining activity at 1 µM [33]: 18%
remaining activity at 1 µM [34]: -1%
remaining activity at 1 µM [35]: 3%
remaining activity at 1 µM ([36]; read-out: % Control): -4%
remaining activity at 1 µM [37]: 1%
inhibition at 10 µM [38]: -8%
inhibition at 10 µM [39]: 17%
inhibition at 10 µM [40]: -11%
inhibition at 10 µM [41, 45]: 42%
inhibition at 10 µM [42]: -15%
remaining activity at 1 µM [43]: 18%
remaining activity at 1 µM [44]: -2%

Cn1cc(-c2ccc(-c3cncc(Cl)c3N3CCC4(CCNC4=O)CC3)cc2)cn1 [Compound 74, 8-(3-Chloro-5-(4-(1-methyl-1H-pyrazol-4-yl)phenyl)pyridin-4-yl)-2,8-diazaspiro[4.5]decan-1-one]
remaining activity at 1 µM [1]: -25%
inhibition at 10 µM [2]: 5%
remaining activity at 1 µM [3]: -25%
remaining activity at 1 µM [4]: 10%
remaining activity at 1 µM [5]: -7%
inhibition at 10 µM [6]: -6%
remaining activity at 1 µM [7]: -11%
inhibition at 10 µM [8]: 21%
remaining activity at 1 µM [9]: 5%
remaining activity at 1 µM [10]: 6%
% Inhibition of Control Specific Binding ([11]; 10 μM): 22%
remaining activity at 1 µM [12]: 13%
remaining activity at 1 µM [13]: 11%
remaining activity at 1 µM [14]: -2%
remaining activity at 1 µM [15]: 4%
inhibition at 10 µM [16]: 17%
% Inhibition of Control Specific Binding [17]: 0%
remaining activity at 1 µM [18]: 1%
remaining activity at 1 µM [19]: 4%
remaining activity at 1 µM [20]: -7%
remaining activity at 1 µM [21]: 10%
remaining activity at 1 µM [22]: 6%
remaining activity at 1 µM [23]: -9%
remaining activity at 1 µM [24]: 5%
remaining activity at 1 µM [25]: 6%
remaining activity at 1 µM [26]: 0%
remaining activity at 1 µM [27]: -2%
remaining activity at 1 µM [28]: -15%
remaining activity at 1 µM [29]: -6%
inhibition at 10 µM [30]: -17%
remaining activity at 1 µM [31]: -21%
remaining activity at 1 µM [32]: 6%
remaining activity at 1 µM [33]: 15%
remaining activity at 1 µM [34]: -2%
remaining activity at 1 µM [35]: -12%
IC50 ([36]; ATP at Km): > 10 µM
remaining activity at 1 µM [37]: -5%
inhibition at 10 µM [38]: -2%
inhibition at 10 µM [39]: 34%
inhibition at 10 µM [40]: -12%
% Inhibition of Control Specific Binding ([41]; 10 μM): 72%
inhibition at 10 µM [42]: 14%
remaining activity at 1 µM [43]: 7%
remaining activity at 1 µM [44]: -3%

Source: paper PMC4767141, “Discovery of Potent, Orally Bioavailable, Small-Molecule Inhibitors of WNT Signaling from a Cell-Based Pathway Screen” (Journal of Medicinal Chemistry, 2015)
